Series [1] in a line: Solubility of the compound in FeSSIF buffer. The class given is physicochemical.
Series [2] in a line: AUC infinity in mouse at 1 mg/kg, iv administered as single dose. The class given is ADME, organism-based. Conditions: in vivo.
Series [3] concerns the target T1, Protein cereblon/Dual specificity tyrosine-phosphorylation-regulated kinase 1A (Homo sapiens, UniProt Q13627+Q96SW2). Kind of series: PROTAC activity at CRBN/DYRK1A in HEK293 cells assessed as induction of degradation of DYRK1A at 100 nM pretreated with lenalidomide followed by compound addition and incubated for 8 hrs. The format is cell-based.
The nature of series [4]: MRT in mouse at 1 mg/kg, iv administered as single dose. The class given is ADME, organism-based. Conditions: in vivo.
Series [5] has as its target T1, Protein cereblon/Dual specificity tyrosine-phosphorylation-regulated kinase 1A. Kind of series: Competitive binding affinity to CRBN/DYRK1A (unknown origin) assessed as residence time. The class given is protein assay.
For series [6] the target is unchanged. Kind of series: PROTAC activity at CRBN/DYRK1A in human PANC-1 cells assessed as induction of degradation of DYRK1A at 100 nM incubated for 8 hrs. The class given is cell-based.
For series [7] the target is unchanged. The series is described as follows: PROTAC activity at CRBN/DYRK1A in HEK293 cells assessed as induction of degradation of DYRK1A at 100 nM measured within 8 hrs by Western blot analysis. The format is cell-based.
Series [8] has as its target Protein cereblon/Dual specificity tyrosine-phosphorylation-regulated kinase 1B (Homo sapiens) (UniProt Q9Y463+Q96SW2). The series is described as follows: PROTAC activity at CRBN/DYRK1B in HEK293 cells assessed as induction of degradation of DYRK1B at 100 nM pretreated with lenalidomide followed by compound addition and incubated for 8 hrs. The format is cell-based.
In series [9] the target is T1, Protein cereblon/Dual specificity tyrosine-phosphorylation-regulated kinase 1A. Kind of series: PROTAC activity at CRBN/DYRK1A in SH-SY5Y cells assessed as induction of degradation of DYRK1A at 100 nM incubated for 24 hrs. The format is cell-based.
Series [10] shares this target. Kind of series: PROTAC activity at CRBN/DYRK1A in HEK293 cells assessed as induction of degradation of DYRK1A incubated for 24 hrs. The format is cell-based.
Series [11] shares this target. The series is described as follows: Competitive binding affinity to CRBN/DYRK1A (unknown origin) assessed as association rate constant Kon. The class given is protein assay.
Series [12] is described as follows: AUC last in mouse at 10 mg/kg, ip administered as single dose. The following applies: in vivo. The class given is ADME, organism-based.

The values that follow come from ChEMBL document CHEMBL6120970, “Discovery and Functional Characterization of a Potent, Selective, and Metabolically Stable PROTAC of the Protein Kinases DYRK1A and DYRK1B” (J Med Chem, 2024).

≈ marks a conversion by molar mass, not a printed value. Calls of active or inactive are those of the source. The rule behind the calls is not given here.

As a reminder, the solubility is the concentration that dissolves in the medium under given conditions. A higher solubility goes with much dissolved substance. By AUC(0-inf) is commonly meant total exposure, with the tail of the curve extrapolated. A low value points to less exposure. For orientation: MRT means the average time that molecules of a dose stay in the body. In general, DC50 refers to the concentration at which degradation of the target reaches its halfway point. One may read the AUC(0-t) as exposure summed from dosing to a finite time, without extrapolation to infinity. A high value points to more exposure. `Cc1nc2ccc(-c3ccnc(N)c3)nc2n1-c1ccc(N2CCN(CC#Cc3ccc(N4CCC(C(=O)N5CCC(n6cc(CNc7cccc8c7C(=O)N(C7CCC(=O)NC7=O)C8=O)cn6)CC5)CC4)nc3)CC2)c(F)c1` (configuration not stated) had a solubility in [1] of 2.09 µM (≈ 2.22 µg/mL). This molecule also registered an AUC(0-inf) in [2] of 2470 ng·h/mL. The outcome in series [3] and in series [8] was inactive. For the same molecule, the mean residence time MRT in series [4] amounted to 1.4 h. The TIME in [5] came to 0.383 h. Further, in series [6], the Activity result is “Active; Compound Showed Partial Degradation”. Also, the outcome in [7] and in series [9] was Active. Also, in [10], the DC50 was 12.3 nM. In addition, in series [11], the K is 1.83 10^5/M/s. For the same molecule, the AUC(0-t) in series [12] turned out to be 26300 ng·h/mL.
